Test results published in paper PMC11637378, “Optogenetic screening of MCT1 activity implicates a cluster of non-steroidal anti-inflammatory drugs (NSAIDs) as inhibitors of lactate transport” (PLOS ONE, 2024).
Structures can show the parent of a compound that is named as a salt.

system: parent strain (SAWy518); conditions: not given

Compound | Offscreen_18hr | Offscreen_24hr | Offscreen_42hr | Offtarget | Offtarget_sub | 18 hours | 24 hours | 48 hours | OffScreen_percentage [percentage] | Read_percentage [percentage]
CC[C@@H](C(=O)[C@@H](C)[C@@H](O)[C@H](C)[C@@H]1O[C@@H]([C@@H](CC)C(=O)[O-])CC[C@@H]1C)[C@H]1OC2(C=C[C@@H](O)[C@]3(CC[C@@](C)([C@H]4CC[C@](O)(CC)[C@H](C)O4)O3)O2)[C@H](C)C[C@@H]1C.[Na+] (stereo partly drawn) [SALINOMYCIN, SODIUM] | 0.1472 | 0.2295 | 0.8421 | – | – | – | – | – | – | –
NS(=O)(=O)c1ccc(-n2nc(C(F)(F)F)cc2-c2ccc(Cl)cc2)cc1 [SC-236, reference compound] | – | – | – | NO | 0.2541 | – | – | – | – | –
CO[C@H]1C[C@@H]2CC[C@@H](C)[C@@](O)(O2)C(=O)C(=O)N2CCCC[C@H]2C(=O)O[C@H]([C@H](C)C[C@@H]2CC[C@@H](O)[C@H](OC)C2)CC(=O)[C@H](C)/C=C(\C)[C@@H](O)[C@@H](OC)C(=O)[C@H](C)C[C@H](C)/C=C/C=C/C=C/1C [SIROLIMUS] | 0.341 | 0.5452 | 0.8609 | – | – | – | – | – | – | –
Oc1ccc(Nc2nc(-c3ccc(Cl)cc3)cs2)cc1 [SKI II] | 0.4105 | 0.6287 | 0.8658 | – | – | – | – | – | – | –
CC[C@H](C(=O)[C@H](C)[C@@H](O)[C@@H](C)[C@@H]1O[C@@H]([C@@H](CC)C(=O)O)CC[C@H]1C)[C@H]1O[C@]2(C=C[C@@H](O)[C@]3(CC[C@@](C)([C@H]4CC[C@](O)(CC)[C@H](C)O4)O3)O2)[C@H](C)C[C@H]1C [Salinomycin (Procoxacin)] | 0.8013 | 0.892 | 0.9461 | – | – | – | – | – | – | –
C=CC[C@@H]1/C=C(\C)C[C@H](C)C[C@H](OC)[C@H]2O[C@@](O)(C(=O)C(=O)N3CCCC[C@H]3C(=O)O[C@H](/C(C)=C/[C@@H]3CC[C@@H](O)[C@H](OC)C3)[C@H](C)[C@@H](O)CC1=O)[C@H](C)C[C@@H]2OC [TACROLIMUS] | 0.727 | 0.8973 | 0.9661 | – | – | – | – | – | – | –
O=C1NC(=O)/C(=C\c2cccc(C(F)(F)F)c2)S1 [TCS PIM-1 4a] | 0.5379 | 0.7077 | 0.7912 | – | – | – | – | – | – | –
O=C(O)Cc1cc(I)c(Oc2ccc(O)c(I)c2)c(I)c1 [TIRATRICOL] | 0.6885 | 0.8174 | 0.855 | – | – | – | – | – | – | –
CCCCCCC(=O)OC1CC(C)(C)NC(C)(C)C1.Cl [TMPH hydrochloride, reference compound] | – | – | – | NO | 0.4142 | – | – | – | – | –
CC(C)(C)C(=O)C(Oc1ccc(Cl)cc1)n1cncn1 (stereo not drawn) [TRIADIMEFON] | 0.0626 | 0.0684 | 0.2136 | – | – | – | – | – | – | –
CSc1nc2cc(Cl)c(Oc3cccc(Cl)c3Cl)cc2[nH]1 [TRICLABENDAZOLE] | 0.3546 | 0.5896 | 0.8341 | – | – | – | – | – | – | –
CO[C@H]1C[C@@H]2CC[C@@H](C)[C@@](O)(O2)C(=O)C(=O)N2CCCC[C@H]2C(=O)O[C@H]([C@H](C)C[C@@H]2CC[C@@H](OC(=O)C(C)(CO)CO)[C@H](OC)C2)CC(=O)[C@H](C)/C=C(\C)[C@@H](O)[C@@H](OC)C(=O)[C@H](C)C[C@H](C)/C=C/C=C/C=C/1C [Temsirolimus] | 0.0544 | 0.0562 | 0.0968 | – | – | – | – | – | – | –
CN(C/C=C/C#CC(C)(C)C)Cc1cccc2ccccc12 [Terbinafine hydrochloride] | 0.3316 | 0.5468 | 0.9146 | – | – | – | – | – | – | –
CCN(CC)C(=S)SSC(=S)N(CC)CC [Tetraethylthiuram disulfide] | 0.0416 | 0.0418 | 0.0415 | – | – | – | – | – | – | –
Oc1cc(Cl)ccc1Oc1ccc(Cl)cc1Cl [Triclosan] | 0.1779 | 0.3017 | 0.8343 | – | – | – | – | – | – | –
COc1ccc2c(c1)CC[C@@H]1[C@@H]2CC[C@]2(C)[C@H](NCCCCCCN3C(=O)C=CC3=O)CC[C@@H]12 [U 73122] | 0.5917 | 0.8296 | 0.9704 | – | – | – | – | – | – | –
CCC[C@H](NC(=O)/C(C#N)=C/c1cccc(Br)n1)c1ccccc1 [WP1130] | 0.6544 | 0.8363 | 0.9253 | – | – | – | – | – | – | –
CC(C)N(CCC(=O)c1ccc2ccccc2c1)Cc1ccccc1.Cl [ZM 39923 HCl] | 0.0402 | 0.0403 | 0.0401 | – | – | – | – | – | – | –
O=c1[nH]c(=O)c2ccccc2o1 [pu-sc-0002 H19] | – | – | – | – | – | 0.7281 | 0.8523 | 0.8964 | – | –
Erythrosine | 0.8136 | 0.8985 | 0.9466 | – | – | – | – | – | 100.818 | 100.818
OXYCLOZANIDE | 0.5071 | 0.6783 | 0.7815 | – | – | – | – | – | – | –

same assay, conditions: parent strain growth reading, 18 hr

Compound | Offscreen_18hr
CN(C)c1ccc2nc3ccc(=[N+](C)C)cc-3sc2c1 [Methylene Blue trihydrate] | 0.8664
JAK3 Inhibitor VI | 0.0531

same assay, conditions: parent strain growth reading, 24 hr

Compound | Offscreen_24hr
CN(C)c1ccc2nc3ccc(=[N+](C)C)cc-3sc2c1 [Methylene Blue trihydrate] | 0.9565
JAK3 Inhibitor VI | 0.0592

same assay, conditions: parent strain growth reading, 42 hr

Compound | Offscreen_42hr
CN(C)c1ccc2nc3ccc(=[N+](C)C)cc-3sc2c1 [Methylene Blue trihydrate] | 1.0182
JAK3 Inhibitor VI | 0.0892
